Like-named read-outs stand apart in the source and are kept apart here.
System: SARS-CoV-2
Experiment: Confirmation test of suppressing effect against SARS-CoV-2 proliferation (nucleocapsid Western blotting, VeroE6/TMPRSS2 cells)
Format: cell-based
Settings: for inhibition at 20 µM: Severe acute respiratory syndrome coronavirus 2, VeroE6/TMPRSS2, 8 h, read-out: Inhibition Rate
[1] = 20 μM Pin1 inhibitor, VeroE6/TMPRSS2 cells, MOI 10, cell lysate 8 hours after infection, nucleocapsid band area vs no inhibitor

SMILES	inhibition at 20 µM [1] [%]	also measured
O=C(O)[C@@H](Cc1cccc2ccccc12)NC(=O)n1c2ccccc2c2ccccc21 [H-509]	98	
O=C(CC1c2ccccc2-c2ccccc21)N[C@H](Cc1ccc2ccccc2c1)C(=O)O [H-103]	100	
O=C(O)c1cc(NC(=O)n2c3ccccc3c3ccccc32)cc(NC(=O)n2c3ccccc3c3ccccc32)c1 [H-596]	99	
O=C(O)[C@@H](Cc1ccc(OCc2ccccc2)cc1)NC(=O)N1c2ccccc2Oc2ccccc21 [H-336]	98	
COC(=O)c1cc(NC(C)=O)cc(NC(=O)n2c3ccccc3c3ccccc32)c1 [H-696-2]	98	
O=C(O)/C(=C/c1ccc2ccccc2c1)CC(=O)N1CCCc2ccccc21 [H-743]	59	
O=C(Nc1ccc(OCc2ccccc2)cc1C(=O)O)OCc1ccccc1 [H-78]	96	
O=C(O)[C@@H](Cc1ccc2ccccc2c1)OC(=O)N1c2ccccc2Oc2ccccc21 [H-157]	100	
CC(C)(C)OC(=O)Nc1cc(NC(=O)n2ccc3ccccc32)cc(C(=O)O)c1 [H-873]	67	
O=C(O[C@H](Cc1ccc2ccccc2c1)C(=O)O)c1ccc(-c2ccccc2)cc1 [H-33]	100	
O=C(O[C@H](Cc1ccc2ccccc2c1)C(=O)O)c1ccc(Cl)c(Cl)c1 [H-269]	98	
O=C(N[C@@H](CCCN1C(=O)c2ccccc2C1=O)C(=O)O)C1c2ccccc2-c2ccccc21 [H-619]	94	
O=C(Nc1ccc(OCc2ccccc2)cc1C(=O)O)c1ccc2ccccc2n1 [H-339]	76	
O=C(Nc1ccc(OCc2ccccc2)cc1C(=O)O)c1cccc(Oc2ccccc2)c1 [H-363]	99	
O=C(N[C@H](Cc1c[nH]c2ccccc12)C(=O)O)OCC1c2ccccc2-c2ccccc21 [H-95]	95	
O=C(O)c1cc(OCc2ccc3ccccc3c2)cc(OCc2ccc3ccccc3c2)c1 [H-491]	91	
COC(=O)c1cc(NC(=O)c2ccc(CN(C)C)cc2)cc(NC(=O)n2c3ccccc3c3ccccc32)c1 [H-890]	54	
O=C(O)c1cc(NC(=O)c2cnc3ccccc3n2)cc(NC(=O)n2c3ccccc3c3ccccc32)c1 [H-691]	52	
COC(=O)/C(=C/c1ccc2c(c1)OCO2)CC(=O)Nc1cccc2ccccc12 [H-669]	64	
COC(=O)c1cc(NC(=O)c2cnc3ccccc3n2)cc(NC(=O)n2c3ccccc3c3ccccc32)c1 [H-685]	58	
COP(=O)(OC)OCC(COc1cccc2ccccc12)OCc1ccc2ccccc2c1 (stereo not drawn) [H-546]		inhibition at 20 µM: 83%

SMILES	inhibition at 20 µM [1] [%]	also measured
COC(=O)[C@@H](Cc1ccc2ccccc2c1)NC(=O)c1ccc(CNC(=O)OC(C)(C)C)cc1 [H-848]	53	
NCc1ccc(C(=O)Nc2cc(NC(=O)n3c4ccccc4c4ccccc43)cc(C(=O)O)c2)cc1 [H-871]	61	
O=C(N[C@H](Cc1ccc2ccccc2c1)C(=O)OCc1ccccc1)C1c2ccccc2-c2ccccc21 [H-105]	100	
COC(=O)c1cc(NC(=O)CC2c3ccccc3-c3ccccc32)cc(NC(=O)c2ccc3c(c2)OCCO3)c1 [H-859]	89	
O=C(Cc1cccc2ccccc12)Nc1ccc(OCc2ccccc2)cc1C(=O)O [H-839]	83	
O=C(O)/C(=C/c1ccc2ccccc2c1)CC(=O)N1CCc2ccccc2C1 [H-742]	57	
O=C(Cc1cccc2ccccc12)O[C@H](Cc1ccc2ccccc2c1)C(=O)O [H-151]	98	
O=C(O[C@H](Cc1ccc2ccccc2c1)C(=O)O)c1ccc2ccccc2c1 [H-30]	99	
O=C(COc1ccc2ccccc2c1)O[C@H](Cc1ccc2ccccc2c1)C(=O)O [H-177]	99	
O=C(C/C(=C\c1ccc2ccccc2c1)C(=O)O)NC1c2ccccc2-c2ccccc21 [H-644]	95	
Nc1cc(NC(=O)C2c3ccccc3-c3ccccc32)cc(C(=O)OCc2ccccc2)c1 [H-755]	78	
O=C(O[C@H](Cc1ccc2ccccc2c1)C(=O)O)C1c2ccccc2-c2ccc(F)cc21 (stereo partly drawn) [H-262]	94	
O=C(O[C@H](Cc1ccc2ccccc2c1)C(=O)O)C1c2ccccc2-c2ccccc21 [H-614]	96	
O=C(O)CC(Cc1ccc2ccccc2c1)OC(=O)c1ccc2ccccc2c1 (stereo not drawn) [H-514]	99	
O=C(O[C@H](Cc1ccc2ccccc2c1)C(=O)O)c1ccc(Oc2ccccc2)cc1 [H-123]	99	
COC(=O)c1cc(N)cc(NC(=O)N(c2ccccc2)c2ccccc2)c1 [H-725-2]	81	
COC(=O)c1cc(NC(=O)c2ccc3ccccc3n2)cc(NC(=O)n2c3ccccc3c3ccccc32)c1 [H-684]	66	
O=C(O[C@H](Cc1ccc2ccccc2c1)C(=O)O)C(c1ccccc1)c1ccccc1 [H-134]	98	
O=C(O[C@H](Cc1cccc2ccccc12)C(=O)O)c1ccc2ccccc2c1 [H-438]	99	
COC(=O)/C(=C/c1ccc2ccccc2c1)CC(=O)N1CCCc2ccccc21 [H-739]	51	
O=C(Nc1ccc(OCc2ccc3ccccc3c2)cc1C(=O)O)c1ccc2ccccc2c1 [H-487]		Inhibition Rate [1]: 63%

SMILES	inhibition at 20 µM [1] [%]	also measured
COc1ccc2cc(CC(OC(=O)c3ccc4ccccc4c3)C(=O)O)ccc2c1 (stereo not drawn) [H-512]	90	
COC(=O)c1cc(NC(=O)c2ccc(CN)cc2)cc(NC(=O)n2ccc3ccccc32)c1 [H-881]	88	
O=C(O)c1cc(NC(=O)C2COc3ccccc3O2)cc(NC(=O)n2c3ccccc3c3ccccc32)c1 (stereo not drawn) [H-693]	77	
Nc1cc(NC(=O)N(c2ccccc2)c2ccccc2)cc(C(=O)O)c1 [H-727]	50	
O=C(COc1ccc2ccccc2c1)Nc1ccc(OCc2ccccc2)cc1C(=O)O [H-362]	99	
COc1cc(OC)cc(C(=O)O[C@H](Cc2ccc3ccccc3c2)C(=O)O)c1 [H-198]	67	
O=C(O)[C@@H](Cc1ccc2ccccc2c1)OC(=O)n1c2ccccc2c2ccccc21 [H-175]	100	
COC(=O)c1cc(N)cc(NC(=O)CN(c2ccccc2)c2ccccc2)c1 [H-816]	63	
O=C(CN(c1ccccc1)c1ccccc1)Nc1cc(NC(=O)c2ccc3ccccc3n2)cc(C(=O)O)c1 [H-821]	95	
COc1ccc2c(c1)C(C(=O)O[C@H](Cc1ccc3ccccc3c1)C(=O)O)c1ccccc1-2 (stereo partly drawn) [H-254]	94	
O=C(Cn1c2ccccc2c2ccccc21)Nc1ccc(OCc2ccccc2)cc1C(=O)O [H-835]	99	
O=C(O)c1cc(OCc2ccc3ccccc3c2)c(C(=O)O)cc1OCc1ccc2ccccc2c1 [H-444]	55	
O=C(O)[C@H](NC(=O)n1c2ccccc2c2ccccc21)c1ccccc1 [H-348]	81	
O=C(COc1cccc2ccccc12)O[C@H](Cc1ccc2ccccc2c1)C(=O)O [H-179]	97	
CC(C)(C)OC(=O)Nc1cc(NC(=O)n2c3ccccc3c3ccccc32)cc(C(=O)O)c1 [H-678]	87	
O=C(NCCC[C@H](NC(=O)n1c2ccccc2c2ccccc21)C(=O)O)c1ccc2ccccc2c1 [H-717]	87	
O=C(O)[C@@H](Cc1ccc2ccccc2c1)OCc1ccc2ccccc2c1 [H-181]	99	
O=C(O)[C@@H](Cc1ccc(OCc2ccccc2)cc1)NC(=O)n1c2ccccc2c2ccccc21 [H-337]	100	
O=C(O[C@H](Cc1ccc2ccccc2c1)C(=O)O)c1cc(Cl)cc(Cl)c1 [H-200]	98	
O=C(O)[C@@H](Cc1ccc2ccccc2c1)OCc1ccccc1Oc1ccccc1 [H-464]	100	
COC(=O)c1cc(NC(=O)c2ccc(CN)cc2)cc(NC(=O)n2c3ccccc3c3ccccc32)c1 [H-870]	97	

SMILES	inhibition at 20 µM [1] [%]	also measured
O=C(O[C@H](Cc1ccc2ccccc2c1)C(=O)O)c1cccc2ccccc12 [H-452]	52	
COC(=O)c1cc(NC(=O)CC2c3ccccc3-c3ccccc32)cc(NC(=O)c2ccc3ccccc3c2)c1 [H-857]	55	
O=C(Nc1ccc(OCc2ccccc2)cc1C(=O)O)c1ccc2c(c1)OCCO2 [H-800]	91	
O=C(O[C@H](Cc1ccc2ccccc2c1)C(=O)O)c1ccccc1Oc1ccccc1 [H-132]	99	
O=C(Nc1ccc(OCc2ccccc2)cc1C(=O)O)c1ccc2ccccc2c1 [H-429]	99	
O=C(O)[C@@H](Cc1ccc2ccccc2c1)NC(=O)N1c2ccccc2Oc2ccccc21 [H-162]	99	
O=C(O)c1cc(OCc2ccccc2)ccc1NS(=O)(=O)c1ccc2ccccc2c1 [H-338]	99	
O=C(NCCC[C@H](NC(=O)n1c2ccccc2c2ccccc21)C(=O)O)c1cccnc1 [H-708]	62	
COC(=O)c1cc(OCc2ccncc2)ccc1NC(=O)c1cccnc1 [H-832]	65	
Nc1cc(NC(=O)C2c3ccccc3-c3ccccc32)cc(C(=O)OCc2ccccc2)c1 [H-755-2]		Inhibition Rate [1]: 75%
COC(=O)[C@H](CCCNC(=O)c1cccnc1)NC(=O)n1c2ccccc2c2ccccc21 [H-707]	55	
COC(=O)c1cc(NC(=O)COc2ccccn2)cc(NC(=O)n2c3ccccc3c3ccccc32)c1 [H-762]	83	
O=C(O)c1cc(OCc2ccccc2)ccc1NC(=O)c1cccc2ccccc12 [H-370]	98	
Cc1cc(C)cc(C(=O)O[C@H](Cc2ccc3ccccc3c2)C(=O)O)c1 [H-210]	99	
O=C(Cc1ccc2ccccc2c1)O[C@H](Cc1ccc2ccccc2c1)C(=O)O [H-149]	99	
CC(C)(C)OC(=O)N[C@@H](Cc1ccccc1)C(=O)O[C@H](Cc1ccc2ccccc2c1)C(=O)O [H-248]	88	
COC(=O)c1cc(NC(=O)OC(C)(C)C)cc(NC(=O)n2ccc3ccccc32)c1 [H-872]	78	
NCc1ccc(C(=O)N[C@H](Cc2ccc3ccccc3c2)C(=O)O)cc1 [H-851]	59	
